# Source: ChEMBL document CHEMBL1201862, “PubChem BioAssay data set” (2004)
#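 All cell lines were grown in 96-well plates and treated with compound for 48 hours. Abbreviation: GI50, concentration required for 50% inhibition of growth.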 Active and inactive are the calls of the source. Rule as the data show it: active = GI50 up to about 1.1 µM and inactive = higher.
# Columns and labels:
# Test in all cases: inhibition of tumour cell growth, NCI panel, 48 h
# NCI-H522 = system: NCI-H522
# HCT-116 = system: HCT-116
# M14 = system: M14
# TK-10 = system: TK-10
# UO-31 = system: UO-31
# CCRF-CEM = system: CCRF-CEM
# Malme-3M = system: Malme-3M
# Hs-578T = system: Hs-578T
# HOP-62 = system: HOP-62
# K562 = system: K562
# UACC-62 = system: UACC-62
# SN12C = system: SN12C
# MOLT-4 = system: MOLT-4
# UACC-257 = system: UACC-257
# PC-3 = system: PC-3
# A549 = system: A549
# 786-0 = system: 786-0
# MCF7 = system: MCF7
# OVCAR-8 = system: OVCAR-8
# HCT-15 = system: HCT-15
# SK-MEL-2 = system: SK-MEL-2
# SF-539 = system: SF-539
# HL-60 = system: HL-60
# SK-MEL-5 = system: SK-MEL-5
# T47D = system: T47D
# SK-OV-3 = system: SK-OV-3
# HT-29 = system: HT-29
# COLO 205 = system: COLO 205
# NCI/ADR-RES = system: NCI/ADR-RES
# DU-145 = system: DU-145
# IGROV-1 = system: IGROV-1
# SW-620 = system: SW-620
# SF-295 = system: SF-295
# A498 = system: A498
# CAKI-1 = system: CAKI-1
# OVCAR-3 = system: OVCAR-3
# KM12 = system: KM12
# SNB-75 = system: SNB-75
# SR = system: SR
# U-251 = system: U-251
# MDA-N = system: MDA-N
# NCI-H23 = system: NCI-H23
# NCI-H460 = system: NCI-H460
# BT-549 = system: BT-549
# MDA-MB-435 = system: MDA-MB-435
# OVCAR-5 = system: OVCAR-5
# NCI-H226 = system: NCI-H226
# SNB-19 = system: SNB-19
# HCC 2998 = system: HCC 2998
# MDA-MB-231 = system: MDA-MB-231
# SK-MEL-28 = system: SK-MEL-28
# SF-268 = system: SF-268
# RPMI-8226 = system: RPMI-8226
# ACHN = system: ACHN
# OVCAR-4 = system: OVCAR-4
# EKVX = system: EKVX
# RXF 393 = system: RXF 393
# LOX IMVI = system: LOX IMVI
# HOP-92 = system: HOP-92
compound,measurement,setting,value
O=C(N/N=C/c1ccc(O)cc1)NNCCO,GI50,NCI-H522,> 100 µM (inactive)
same,GI50,HCT-116,> 100 µM (inactive)
same,GI50,M14,> 100 µM (inactive)
same,GI50,TK-10,> 100 µM (inactive)
same,GI50,UO-31,> 100 µM (inactive)
same,GI50,CCRF-CEM,> 100 µM (inactive)
same,GI50,Malme-3M,> 100 µM (inactive)
same,GI50,Hs-578T,> 100 µM (inactive)
same,GI50,HOP-62,> 100 µM (inactive)
same,GI50,K562,> 100 µM (inactive)
same,GI50,UACC-62,> 100 µM (inactive)
same,GI50,SN12C,> 100 µM (inactive)
same,GI50,MOLT-4,> 100 µM (inactive)
same,GI50,UACC-257,> 100 µM (inactive)
same,GI50,PC-3,> 100 µM (inactive)
same,GI50,A549,> 100 µM (inactive)
same,GI50,786-0,> 100 µM (inactive)
same,GI50,MCF7,> 100 µM (inactive)
same,GI50,OVCAR-8,> 100 µM (inactive)
same,GI50,HCT-15,> 100 µM
same,GI50,SK-MEL-2,> 100 µM (inactive)
same,GI50,SF-539,> 100 µM (inactive)
same,GI50,HL-60,> 100 µM (inactive)
same,GI50,SK-MEL-5,> 100 µM (inactive)
same,GI50,T47D,> 100 µM (inactive)
same,GI50,SK-OV-3,> 100 µM (inactive)
same,GI50,HT-29,> 100 µM (inactive)
same,GI50,COLO 205,> 100 µM (inactive)
same,GI50,NCI/ADR-RES,> 100 µM (inactive)
same,GI50,DU-145,> 100 µM (inactive)
same,GI50,IGROV-1,> 100 µM (inactive)
same,GI50,SW-620,> 100 µM (inactive)
same,GI50,SF-295,> 100 µM (inactive)
same,GI50,A498,> 100 µM (inactive)
same,GI50,CAKI-1,> 100 µM (inactive)
same,GI50,OVCAR-3,> 100 µM (inactive)
same,GI50,KM12,> 100 µM (inactive)
same,GI50,SNB-75,50.5 µM (inactive)
same,GI50,SR,> 100 µM (inactive)
same,GI50,U-251,> 100 µM (inactive)
same,GI50,MDA-N,> 100 µM (inactive)
same,GI50,NCI-H23,> 100 µM (inactive)
same,GI50,NCI-H460,> 100 µM (inactive)
same,GI50,BT-549,> 100 µM (inactive)
same,GI50,MDA-MB-435,> 100 µM (inactive)
same,GI50,OVCAR-5,> 100 µM (inactive)
same,GI50,NCI-H226,> 100 µM (inactive)
same,GI50,SNB-19,> 100 µM (inactive)
same,GI50,HCC 2998,> 100 µM (inactive)
same,GI50,MDA-MB-231,> 100 µM (inactive)
same,GI50,SK-MEL-28,> 100 µM (inactive)
CC1CC(C)[C@H](O)C([C@H](O)CC2CC(=O)N(C)C(=O)C2)C1 (stereo partly drawn),GI50,NCI-H522,57 µM (inactive)
same,GI50,SF-268,> 100 µM (inactive)
same,GI50,HCT-116,> 100 µM (inactive)
same,GI50,M14,> 100 µM (inactive)
same,GI50,TK-10,> 100 µM (inactive)
same,GI50,UO-31,> 100 µM (inactive)
same,GI50,CCRF-CEM,> 100 µM (inactive)
same,GI50,Malme-3M,> 100 µM (inactive)
same,GI50,RPMI-8226,> 100 µM (inactive)
same,GI50,Hs-578T,> 100 µM (inactive)
same,GI50,HOP-62,> 100 µM (inactive)
same,GI50,K562,> 100 µM (inactive)
same,GI50,UACC-62,> 100 µM (inactive)
same,GI50,SN12C,> 100 µM (inactive)
same,GI50,MOLT-4,> 100 µM (inactive)
same,GI50,UACC-257,> 100 µM (inactive)
same,GI50,ACHN,> 100 µM (inactive)
same,GI50,PC-3,> 100 µM (inactive)
same,GI50,A549,> 100 µM (inactive)
same,GI50,786-0,> 100 µM (inactive)
same,GI50,MCF7,> 100 µM (inactive)
same,GI50,OVCAR-8,> 100 µM (inactive)
same,GI50,HCT-15,> 100 µM
same,GI50,SK-MEL-2,> 100 µM (inactive)
same,GI50,SF-539,> 100 µM (inactive)
same,GI50,HL-60,> 100 µM (inactive)
same,GI50,SK-MEL-5,> 100 µM (inactive)
same,GI50,T47D,> 100 µM (inactive)
same,GI50,OVCAR-4,> 100 µM (inactive)
same,GI50,SK-OV-3,> 100 µM (inactive)
same,GI50,HT-29,> 100 µM (inactive)
same,GI50,COLO 205,> 100 µM (inactive)
same,GI50,NCI/ADR-RES,> 100 µM (inactive)
same,GI50,DU-145,> 100 µM (inactive)
same,GI50,IGROV-1,> 100 µM (inactive)
same,GI50,SW-620,> 100 µM (inactive)
same,GI50,SF-295,82.4 µM (inactive)
same,GI50,A498,> 100 µM (inactive)
same,GI50,CAKI-1,> 100 µM (inactive)
same,GI50,OVCAR-3,> 100 µM (inactive)
same,GI50,KM12,> 100 µM (inactive)
same,GI50,EKVX,> 100 µM (inactive)
same,GI50,SNB-75,95.1 µM (inactive)
same,GI50,U-251,> 100 µM (inactive)
same,GI50,MDA-N,> 100 µM (inactive)
same,GI50,NCI-H23,> 100 µM (inactive)
same,GI50,NCI-H460,> 100 µM (inactive)
same,GI50,RXF 393,> 100 µM (inactive)
same,GI50,BT-549,> 100 µM (inactive)
same,GI50,MDA-MB-435,> 100 µM (inactive)
same,GI50,OVCAR-5,> 100 µM (inactive)
same,GI50,LOX IMVI,> 100 µM (inactive)
same,GI50,NCI-H226,> 100 µM (inactive)
same,GI50,SNB-19,> 100 µM (inactive)
same,GI50,HCC 2998,> 100 µM (inactive)
same,GI50,MDA-MB-231,> 100 µM (inactive)
same,GI50,SK-MEL-28,> 100 µM (inactive)
same,GI50,HOP-92,32.3 µM (inactive)
CCOC(=O)O/C(=C\c1ccc(OC)cc1)c1c(OC(=O)OCC)n(C(=O)OCC)c2ccccc12,GI50,SF-268,47.1 µM (inactive)
same,GI50,HCT-116,33.9 µM (inactive)
same,GI50,M14,23.6 µM (inactive)
same,GI50,TK-10,31.3 µM (inactive)
same,GI50,UO-31,29.1 µM (inactive)
same,GI50,CCRF-CEM,21.8 µM (inactive)
same,GI50,Malme-3M,58.6 µM (inactive)
same,GI50,RPMI-8226,1.83 µM (inactive)
same,GI50,Hs-578T,22.3 µM (inactive)
same,GI50,HOP-62,19.9 µM (inactive)
same,GI50,K562,2.77 µM (inactive)
same,GI50,UACC-62,42.7 µM (inactive)
same,GI50,SN12C,31.6 µM (inactive)
same,GI50,UACC-257,34.5 µM (inactive)
same,GI50,ACHN,29.1 µM (inactive)
same,GI50,PC-3,29.2 µM (inactive)
same,GI50,A549,34.4 µM (inactive)
same,GI50,786-0,39.5 µM (inactive)
same,GI50,MCF7,25.1 µM (inactive)
same,GI50,OVCAR-8,59.2 µM (inactive)
same,GI50,HCT-15,7.05 µM
same,GI50,SK-MEL-2,35 µM (inactive)
same,GI50,SF-539,34.8 µM (inactive)
same,GI50,HL-60,> 100 µM (inactive)
same,GI50,SK-MEL-5,39 µM (inactive)
same,GI50,T47D,57.7 µM (inactive)
same,GI50,OVCAR-4,32.4 µM (inactive)
same,GI50,SK-OV-3,41.5 µM (inactive)
same,GI50,HT-29,47.3 µM (inactive)
same,GI50,COLO 205,> 100 µM (inactive)
same,GI50,NCI/ADR-RES,43.9 µM (inactive)
same,GI50,DU-145,42.2 µM (inactive)
same,GI50,IGROV-1,35.7 µM (inactive)
same,GI50,SW-620,24.3 µM (inactive)
same,GI50,SF-295,28.4 µM (inactive)
same,GI50,A498,14.2 µM (inactive)
same,GI50,CAKI-1,57.9 µM (inactive)
same,GI50,OVCAR-3,59.4 µM (inactive)
same,GI50,KM12,7.83 µM (inactive)
same,GI50,EKVX,88.9 µM (inactive)
same,GI50,SNB-75,25.1 µM (inactive)
same,GI50,SR,15.3 µM (inactive)
same,GI50,U-251,24.7 µM (inactive)
same,GI50,MDA-N,19.3 µM (inactive)
same,GI50,NCI-H23,27.9 µM (inactive)
same,GI50,NCI-H460,15.1 µM (inactive)
same,GI50,RXF 393,19.8 µM (inactive)
same,GI50,BT-549,39.5 µM (inactive)
same,GI50,MDA-MB-435,24.9 µM (inactive)
same,GI50,OVCAR-5,76.9 µM (inactive)
same,GI50,LOX IMVI,42.3 µM (inactive)
same,GI50,NCI-H226,32.9 µM (inactive)
same,GI50,MDA-MB-231,18.5 µM (inactive)
same,GI50,SK-MEL-28,19.6 µM (inactive)
